Measurements taken from PMC7749613 (Journal of Cachexia, Sarcopenia and Muscle, 2020).
Bridge positions count the residues as written; N and C are the ends. Square brackets hold non-standard residues; d marks the D form. Peptide text beside a SMILES is read from it. d2Nal = N[C@H](Cc1ccc2ccccc2c1)C(=O)O; Nle = CCCC[C@H](N)C(=O)O

Key:
[1] = target: T1, OATP1B3 (Homo sapiens, UniProt Q9NPD5); assay: Inhibition of prototypical substrate (CCK‐8) uptake by TCMCB07 in HEK293/OATP1B3 cells; type: in vitro ADME
T1 construct: host or cells: HEK293
T1 sequence (Q9NPD5 1-702): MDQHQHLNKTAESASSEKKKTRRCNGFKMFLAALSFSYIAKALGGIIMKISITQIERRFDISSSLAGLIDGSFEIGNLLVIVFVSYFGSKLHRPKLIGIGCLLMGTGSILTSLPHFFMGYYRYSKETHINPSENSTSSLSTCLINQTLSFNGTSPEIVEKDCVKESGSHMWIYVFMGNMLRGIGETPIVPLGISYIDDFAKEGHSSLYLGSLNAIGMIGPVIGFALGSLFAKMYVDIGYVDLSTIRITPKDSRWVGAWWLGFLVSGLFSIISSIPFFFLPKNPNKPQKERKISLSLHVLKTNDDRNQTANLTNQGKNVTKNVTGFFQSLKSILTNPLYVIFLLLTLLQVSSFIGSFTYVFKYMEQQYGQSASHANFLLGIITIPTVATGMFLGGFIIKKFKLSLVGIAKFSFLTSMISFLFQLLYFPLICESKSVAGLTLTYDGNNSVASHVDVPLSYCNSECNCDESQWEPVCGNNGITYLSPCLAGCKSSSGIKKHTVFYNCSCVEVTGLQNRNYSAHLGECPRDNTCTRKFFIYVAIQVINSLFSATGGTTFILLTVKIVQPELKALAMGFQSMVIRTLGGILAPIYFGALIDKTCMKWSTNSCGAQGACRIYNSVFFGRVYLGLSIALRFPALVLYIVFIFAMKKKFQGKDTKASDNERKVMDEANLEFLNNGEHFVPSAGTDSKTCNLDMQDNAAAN
Protocol: (§1) Cells were then washed three times × 1.0 mL each with pre‐warmed Hank's Balanced Salt Solution (HBSS) buffer. A 0.5 mL aliquot of uptake buffer [HBSS plus 10 mM 4‐(2‐hydroxyethyl)‐1‐piperazineethanesulfonic acid (HEPES), pH 7.4], containing the radiolabelled prototypical substrate and mannitol, was then incubated for various times up to 60 min to determine the optimal incubation time for subsequent experiments (i.e. time of sampling during linear uptake conditions). At the designated times, 1.0 mL of ice‐cold HBSS buffer was added to stop uptake after which the cells were rinsed three times with 1.0 mL with ice‐cold HBSS. Hyamine hydroxide (0.33 mL) was then added to each well to lyse the cells. The cells were transferred into a scintillation vial and mixed with 6.0 mL of cytosine scintillation cocktail. Radioactivity of the solubilized cells was determined with a dual‐channel liquid scintillation counter (Beckman LS 6000; Beckman Coulter Inc., Fullerton, CA) and the protein quantified by a bicinchoninic acid protein assay kit (Pierce Biotechnology; Rockford, IL).

[2] = target: T2, OAT1 (Homo sapiens, UniProt Q4U2R8); assay: Inhibition of prototypical substrate (PAH) uptake by TCMCB07 in HEK293/OAT1 cells; type: in vitro ADME; conditions: substrate 1.0 μM [14C]PAH, 5.0 min, up to 1000 μM TCMCB07
T2 construct: host or cells: HEK293
T2 sequence (Q4U2R8 1-563): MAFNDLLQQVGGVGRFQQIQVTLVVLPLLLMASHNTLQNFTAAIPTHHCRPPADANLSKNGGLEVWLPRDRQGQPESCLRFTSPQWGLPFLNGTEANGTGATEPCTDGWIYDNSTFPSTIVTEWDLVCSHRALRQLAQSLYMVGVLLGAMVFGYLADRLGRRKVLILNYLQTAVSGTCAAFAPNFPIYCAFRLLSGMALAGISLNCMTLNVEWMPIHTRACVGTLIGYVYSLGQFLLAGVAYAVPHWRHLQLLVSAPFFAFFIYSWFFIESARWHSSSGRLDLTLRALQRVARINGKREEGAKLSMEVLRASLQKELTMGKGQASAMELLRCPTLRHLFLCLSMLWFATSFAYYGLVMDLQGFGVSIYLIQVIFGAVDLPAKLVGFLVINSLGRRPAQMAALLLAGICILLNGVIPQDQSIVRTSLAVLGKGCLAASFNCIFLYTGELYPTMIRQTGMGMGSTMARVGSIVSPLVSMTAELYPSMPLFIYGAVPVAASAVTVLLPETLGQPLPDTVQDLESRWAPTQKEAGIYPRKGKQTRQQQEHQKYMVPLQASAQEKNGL
Protocol: as §1

[3] = target: T3, human P‐gp (ABCB1, MDR1) (Homo sapiens, UniProt P08183); assay: Transepithelial transport of digoxin (±TCMCB07) in MDCKII/MDR1 cells; type: in vitro ADME
T3 construct: host or cells: MDCKII
T3 sequence (P08183 whole entry): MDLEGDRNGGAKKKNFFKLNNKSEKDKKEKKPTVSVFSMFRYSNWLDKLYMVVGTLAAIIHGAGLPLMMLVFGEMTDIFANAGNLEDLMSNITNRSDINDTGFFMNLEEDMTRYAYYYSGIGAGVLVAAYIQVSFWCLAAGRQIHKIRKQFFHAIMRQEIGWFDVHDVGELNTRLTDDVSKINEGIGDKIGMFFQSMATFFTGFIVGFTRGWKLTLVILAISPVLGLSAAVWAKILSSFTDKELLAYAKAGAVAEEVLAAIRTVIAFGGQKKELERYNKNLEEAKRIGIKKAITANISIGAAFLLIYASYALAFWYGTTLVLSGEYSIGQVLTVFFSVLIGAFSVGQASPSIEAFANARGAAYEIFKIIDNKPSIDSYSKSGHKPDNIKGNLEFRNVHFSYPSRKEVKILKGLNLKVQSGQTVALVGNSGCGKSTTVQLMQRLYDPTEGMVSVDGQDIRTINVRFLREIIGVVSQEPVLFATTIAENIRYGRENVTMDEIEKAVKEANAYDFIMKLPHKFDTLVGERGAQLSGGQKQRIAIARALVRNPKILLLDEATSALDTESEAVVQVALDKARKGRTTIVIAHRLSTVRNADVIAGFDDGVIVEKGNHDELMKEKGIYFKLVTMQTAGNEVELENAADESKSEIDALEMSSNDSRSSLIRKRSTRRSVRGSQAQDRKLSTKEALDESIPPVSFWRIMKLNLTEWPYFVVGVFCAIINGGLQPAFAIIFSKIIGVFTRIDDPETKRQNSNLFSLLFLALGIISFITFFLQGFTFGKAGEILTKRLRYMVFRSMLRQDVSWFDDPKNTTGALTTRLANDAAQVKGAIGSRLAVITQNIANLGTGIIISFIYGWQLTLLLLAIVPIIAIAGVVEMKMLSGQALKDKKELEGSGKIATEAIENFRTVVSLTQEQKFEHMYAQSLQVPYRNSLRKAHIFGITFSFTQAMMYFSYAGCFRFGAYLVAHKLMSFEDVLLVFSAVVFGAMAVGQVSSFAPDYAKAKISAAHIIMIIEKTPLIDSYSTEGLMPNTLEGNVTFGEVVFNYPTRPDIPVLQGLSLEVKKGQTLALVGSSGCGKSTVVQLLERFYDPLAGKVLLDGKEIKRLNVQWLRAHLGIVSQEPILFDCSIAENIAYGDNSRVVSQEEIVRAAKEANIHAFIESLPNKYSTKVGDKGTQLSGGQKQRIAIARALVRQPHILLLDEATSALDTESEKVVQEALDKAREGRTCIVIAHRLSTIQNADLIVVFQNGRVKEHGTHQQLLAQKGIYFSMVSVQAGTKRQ
Protocol: Cells were then washed three times, each with 0.5 mL pre‐warmed HBSS buffer. […] The cells were then incubated for various times up to 60 min. […] At the designated times, 15 μL of apical buffer and 50 μL of basolateral buffer were sampled. Once all the samples were collected, 0.5 mL of ice‐cold HBSS buffer was added to the well to stop transport after which the cells were rinsed three times with 0.5 mL of ice‐cold HBSS. The filters with monolayers were then detached from the chamber and placed in a scintillation vial, and the cells were lysed with 0.33 mL hyamine hydroxide.
The permeability of digoxin and rosuvastatin (prototypical substrates for MDR1 and BCRP, respectively) was determined by the following ^18 : (4) Papp=CR·VR/CD^o·A·∆Δt, where Papp is the apparent permeability, CR is the concentration of substrate in the receiver chamber, CD^o is the concentration of substrate in the donor chamber at time zero, VR is the volume of buffer in the receiver chamber, A is the surface area of the insert filter membrane, and ∆t is the time over which permeability is measured.

[4] = In vivo mass balance study (urinary and faecal recovery) in mice; conditions: mouse, in vivo; for dose excreted at 24 h: total radioactivity
Protocol: Each mouse was then placed in a metabolic cage for 24 h, along with food and water, and the urine and faeces were collected. The metabolic cage was washed several times, after which 100 μL aliquots of diluted urine and faeces was placed in separate vials. Radioactivity measurements were then performed as described previously. All animal procedures were approved by the Institutional Animal Care and Use Committee at the University of Michigan, Ann Arbor.

[5] = target: T4, OATP1A2 (Homo sapiens, UniProt P46721); assay: Inhibition of prototypical substrate (E3S) uptake by TCMCB07 in HEK293/OATP1A2 cells; type: in vitro ADME; parameters: host or cells: HEK293
T4 sequence (P46721 1-670): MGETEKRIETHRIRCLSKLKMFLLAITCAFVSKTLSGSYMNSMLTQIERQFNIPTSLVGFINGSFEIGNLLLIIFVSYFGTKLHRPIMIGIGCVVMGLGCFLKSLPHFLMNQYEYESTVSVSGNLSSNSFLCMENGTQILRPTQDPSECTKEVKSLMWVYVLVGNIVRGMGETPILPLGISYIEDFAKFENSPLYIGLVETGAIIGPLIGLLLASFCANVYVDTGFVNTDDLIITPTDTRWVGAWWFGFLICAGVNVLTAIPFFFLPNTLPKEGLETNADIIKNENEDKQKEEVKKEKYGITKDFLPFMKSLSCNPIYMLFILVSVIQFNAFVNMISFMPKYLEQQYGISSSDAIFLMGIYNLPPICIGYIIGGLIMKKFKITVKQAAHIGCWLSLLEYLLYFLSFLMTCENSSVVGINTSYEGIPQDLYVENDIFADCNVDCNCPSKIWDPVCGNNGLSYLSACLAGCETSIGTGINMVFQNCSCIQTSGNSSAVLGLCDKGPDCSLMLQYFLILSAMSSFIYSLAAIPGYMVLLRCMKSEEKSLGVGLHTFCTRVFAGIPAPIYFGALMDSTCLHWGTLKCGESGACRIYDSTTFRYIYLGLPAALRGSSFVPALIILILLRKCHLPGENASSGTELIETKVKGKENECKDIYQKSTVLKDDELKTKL
Protocol: as §1
Mock and transfected cells (250 000 cells/well) were seeded onto BioCoat poly‐D‐lysine 24 well plates (Corning Inc.) and cultured for 2 days as described previously for the other OATPs. […] Radioactivity and protein measurements were then performed as described previously.

[6] = target: T4, OATP1A2; assay: Cellular uptake in HEK293/OATP1A2‐transfected versus mock cells
Protocol: Mock and transfected cells (250 000 cells/well) were seeded onto BioCoat poly‐D‐lysine 24 well plates (Corning Inc.) and cultured for 2 days as described previously for the other OATPs. […] Cells were incubated for various times over 10 min for the uptake studies. Radioactivity and protein measurements were then performed as described previously.
Cellular uptake and transepithelial transport were calculated as described previously by our laboratory. ^16 , ^17 , ^18 , ^19 [^3H]mannitol or [^14C]mannitol was used to correct the uptake of [^14C]substrate or [^3H]substrate, respectively, due to filter binding and extracellular content, as well as the transepithelial transport of substrate due to paracellular flux.
Uptake kinetics in mock cells was evaluated by a linear term: (3) v=Slope·C+Yint, where Slope is the non‐saturable rate constant and Yint is the y‐intercept of the line.

- IC50 [1]: 307 ± 39 µM
- Slope factor ([1]; slope factor n of Eqn 1, OATP1B3, substrate CCK‐8): 1.8 ± 0.3
- IC50 [2]: could not be determined
- decrease of MDR1‐mediated permeability of digoxin, A to B direction ([3]; in the presence of 500 μM TCMCB07, decreased by): 27%
- increase of MDR1‐mediated permeability of digoxin, B to A direction ([3]; in the presence of 500 μM TCMCB07, increased by): 68%
- effect on P‐gp (MDR1)‐mediated permeability of prototypical substrate ([3]; transfected cells, 500 μM TCMCB07): did not affect
- oral absorption [4]: 24.2%
- dose excreted at 24 h ([4]; iv, 23.3 mg/kg, % Urinary recovery, intravenous TCMCB07): 14%
- dose excreted at 24 h ([4]; iv, faecal (biliary) share of total recovery (faeces/(urine + faeces))): 76%
- dose excreted at 24 h ([4]; po, 23.3 mg/kg, % Urinary recovery, oral TCMCB07): 5%
- dose excreted at 24 h ([4]; po, faecal share of total recovery (faeces/(urine + faeces))): 95%
- IC50 [5]: 24 ± 2.8 µM
- saturable uptake component (V max/K m) as share of total uptake (V max/K m + K d) ([6]; OATP1A2‐transfected cells, at low concentrations (<< K m)): over 90%
- uptake of TCMCB07 in OATP1A2 cells as compared with mock cells ([6]; at 5 min): 3–4 times greater
SMILES: CCCC[C@H](NC(C)=O)C(=O)N[C@H]1CC(=O)NCCCC[C@@H](C(=O)N[C@@H](C(=O)N2CCC[C@@H]2C(N)=O)C(C)C)NC(=O)[C@H](Cc2c[nH]c3ccccc23)NC(=O)[C@H](CCCN=C(N)N)NC(=O)[C@@H](Cc2ccc3ccccc3c2)NC(=O)[C@@H]2CCCN2C1=O [TCMCB07, Ac‐Nle‐c[Asp‐Pro‐dNal2′‐Arg‐Trp‐Lys]‐dVal‐dPro‐NH2] (Ac-[Nle]DP[d2Nal]RWK[dV][dP]-NH2; lactam 2-7)
